Here are results for 6 molecules from patent publication US20130217678A1, “PHARMACEUTICAL AGENT COMPRISING QUINOLONE COMPOUND” (OTSUKA PHARMACEUTICAL CO., LTD., priority 2008, published 2013).

For series [1], the system named is human neuroblastoma cell lines SH-SY5Y treated with 1-methyl-4-phenylpyridinium (MPP+). In words: Improvement of mitochondrial function (Alamar Blue mitochondrial oxidation reduction activity) in MPP+-treated SH-SY5Y cells. It counts as cell-based. Conditions: 1.5 mM MPP+, relative to cells in DMSO alone = 100%, read-out: Fluorescence Intensity (%); for activity at 0.01 µg/mL: compound 0.01 μg/ml; for activity at 0.03 µg/mL: compound 0.03 μg/ml; for activity at 0.1 µg/mL: compound 0.1 μg/ml; for activity at 0.3 µg/mL: compound 0.3 μg/ml; for activity at 1 µg/mL: compound 1 μg/ml. The method, then:
In human neuroblastoma cell lines SH-SY5Y in which mitochondrial function was damaged by MPP^+ treatment (Bollimuntha S. et al., J Biol Chem, 280, 2132-2140 (2005) and Shang T. et al., J Biol Chem, 280, 34644-34653 (2005)), the improvement of mitochondrial function was evaluated on the basis of the measurement value for mitochondrial oxidation reduction activity using Alamar Blue fluorescent dye after the compound addition (Nakai M. et al, Exp Neurol, 179, 103-110 (2003)).
The human neuroblastoma cell lines SH-SY5Y were cultured in Dulbecco's Modified Eagle's Medium containing 10% fetal bovine serum (DMEM containing 50 units/ml penicillin and 50 μg/ml streptomycin as antibiotics) at 37° C. in the presence of 5% carbon dioxide. Cells were scattered on a poly-D-lysine-coated 96-well black plate at a concentration of 3−6×10^4 cells/cm^2 (medium amount: 100 μl/well) and cultured in the medium for two days. Further, the medium was changed to DMEM containing a 1% N2 supplement (N2-DMEM) or to a medium (100 μl/well) in which 1.5 mM MPP^+ was dissolved. The cells were cultured therein for 39 to 48 hours, and then subjected to a mitochondrial oxidation reduction activity measurement system. A sample compound that had been previously dissolved in dimethyl sulfoxide (DMSO) was diluted with N2-DMEM and added in a volume of 10 μl/well 24 hours before the activity measurement (final compound concentration: 0.01 to 1 μg/ml).
After removal of the medium by suction, a balanced salt solution containing 10% Alamar Blue (154 mM sodium chloride, 5.6 mM potassium chloride, 2.3 mM calcium chloride, 1.0 mM magnesium chloride, 3.6 mM sodium hydrogen carbonate, 5 mM glucose, 5 mM HEPES, pH 7.2) was added in a volume of 100 μl/well, and reacted in an incubator at 37° C. for 1 hour. The fluorescent intensity was detected using a fluorescence detector (a product of Hamamatsu Photonics K.K., excitation wavelength: 530 nm, measurement wavelength: 580 nm) to thereby measure the mitochondrial oxidation reduction activity.
The fluorescent intensity of the well of the cells cultured in a medium containing MPP^+ and each of the sample compounds was relatively evaluated based on the 100% fluorescent intensity of the well of the cells cultured in a medium containing DMSO alone (final concentration: 0.1%).
On the technique in general: The colour change of resazurin is a common sign of viable cells or microbes.

Series [2] concerns tyrosine hydroxylase (TH). Put plainly: Dopaminergic neuronal protective activity in MPTP-treated C57BL/6 mouse: TH protein level in striatum (Western blot). In kind it is in vivo. Conditions: 10 mg/kg oral at 30 min, 24 h, 48 h after MPTP s.c.; striatum 72 h after MPTP; mouse without MPTP = 100%. The method, then: (§1) Using a mouse having MPTP-induced dopaminergic neurons (Chan P. et al., J Neurochem, 57, 348-351 (1991)), the dopaminergic neuronal protective activity was evaluated based on the protein levels of tyrosine hydroxylase (TH) and dopamine transporter (DAT), which are dopaminergic neuronal marker proteins, and a dopamine content in the brain corpus striatum region after the compound administration (Mori A. et al., Neurosci Res, 51, 265-274 (2005)).
(§2) A male C57BL/6 mouse (provided by Japan Charles River Inc., 10 to 12 weeks) was used as a test animal. MPTP was dissolved in a physiological salt solution so that the concentration was 4 mg/ml, and then administered to the mouse subcutaneously in a volume of 10 ml/kg. A test compound was suspended in a 5% gum arabic/physiological salt solution (w/v) so that the concentration was 1 mg/ml. Each of the test compounds or solvents thereof was orally administered to the mouse after 30 minutes, 24 hours, and 48 hours of the MPTP administration. The mouse was decapitated after 72 hours of the MPTP administration, the brain was removed, and each side of the striatum was dissected.
(§3) The left striatum was used as a sample to detect the protein level by Western blot analysis. Each tissue was homogenized in a HEPES buffer sucrose solution (0.32 M sucrose, 4 μg/ml pepstatin, 5 μg/ml aprotinin, 20 μg/ml trypsin inhibitor, 4 μg/ml leupeptin, 0.2 mM phenylmethanesulfonyl fluoride, 2 mM ethylenediaminetetraacetic acid (EDTA), 2 mM ethylene glycol bis(β aminoethyl ether) tetraacetic acid, 20 mM HEPES, pH 7.2), and assayed for protein using a bicinchoninic acid kit for protein assay (provided by Pierce Corporation). Each homogenized sample, having an equal amount of protein that had been dissolved in a Laemmli sample buffer solution, was subjected to electrophoresis through a sodium dodecyl sulfate polyacrylamide gel. […] Subsequently, a horseradish peroxidase-labeled secondary antibody (a product of Amersham K.K.) for each primary antibody was fixed, and the chemiluminescence associated with enzyme activity of peroxidase was detected using a X-ray film. The density of the protein band on the film was analyzed using a densitometer (a product of Bio-rad Laboratories Inc.) to obtain the TH value relative to Na^+/K^+-ATPase and the DAT value relative to actin.
(§4) In both analyses, the value of the sample derived from the MPTP-induced mouse in which only the test compound or the solvent was administered was expressed relative to the value of the sample derived from the mouse without MPTP treatment (100%). Values were analyzed statistically using a nonclinical statistical analysis system, and values of significance probability less than 0.05 were defined as significant.
On the technique in general: A western blot detects proteins with antibodies after separation by electrophoresis.

Series [3] concerns dopamine transporter (DAT). Put plainly: Dopaminergic neuronal protective activity in MPTP-treated C57BL/6 mouse: DAT protein level in striatum (Western blot). In kind it is in vivo. The note with it: 10 mg/kg oral at 30 min, 24 h, 48 h after MPTP s.c.; striatum 72 h after MPTP; mouse without MPTP = 100%. The protocol:
as §1, §2, §3, §4

The subject of series [4] is dopamine content in the brain corpus striatum region. In words: Dopaminergic neuronal protective activity in MPTP-treated C57BL/6 mouse: dopamine content in striatum (HPLC). In kind it is in vivo. The note with it: 10 mg/kg oral at 30 min, 24 h, 48 h after MPTP s.c.; striatum 72 h after MPTP; mouse without MPTP = 100%. The method, then: as §1, §2
The right striatum, the tissue weight of which was measured immediately after dissection, was used as an analysis sample for determining the dopamine content. Each tissue was homogenized in a 0.1 N perchloric acid solution containing isoproterenol as an internal standard substance of the measurement, using an ultrasonic homogenizer while being cooled with ice. The supernatant obtained from 20,000 g of homogenate that had been centrifuged at 4° C. for 15 minutes was subjected to a high-performance liquid chromatography with a reversed phase column (a product of Eicom Corporation). A mobile phase 15% methanol 0.1 M citric acid/0.1 M sodium acetate buffer solution (containing 190 mg/L 1-sodium octane sulfonate and 5 mg/L EDTA, pH 3.5) was flowed at a rate of 0.5 ml/min, and the dopamine peak of each sample was detected using an electrochemical detector (applied voltage: +750 mV vs. Ag/AgCl, a product of Eicom Corporation). With reference to the identified dopamine peak, the dopamine content per tissue weight was calculated in each sample using analysis software (a product of Gilson Inc.).
as §4

For orientation: melting point means the temperature, or range, at which the solid turns liquid. In turn, `CCCOc1ccc(C)c2c(=O)c(-c3ccc(OC)cc3)c[nH]c12` [Example 1, 3-(4-Methoxyphenyl)-5-methyl-8-propoxy-1H-quinolin-4-one] had a melting point of 192 to 193 °C. In addition, in series [1], the activity at 0.01 µg/mL came out at 58%, the activity at 0.03 µg/mL was found to be 68%, the activity at 0.1 µg/mL came to 73% and the activity at 0.3 µg/mL amounted to 66%. Further, the activity at 1 µg/mL in series [1] was 46%. Also, in series [2], the “Protein level of tyrosine hydroxylase (TH) in the brain corpus striatum region (% of control)” value was 86.2 % of control. Also, the “Protein level of dopamine transporter (DAT) in the brain corpus striatum region (% of control)” value in series [3] is reported as 84.7 % of control. Moreover, in series [4], the “Dopamine content in the brain corpus striatum region (% of control)” value (from here on “Dopamine content … (% of control)”) is reported as 39.6 % of control.
Molecule `CCCOc1ccc(C2CC2)c2c(=O)c(-c3ccc(OC)cc3)c[nH]c12` [Example 65, 5-Cyclopropyl-3-(4-methoxyphenyl)-8-propoxy-1H-quinolin-4-one] showed a melting point of 168 to 170 °C. Also, in series [1], the activity at 0.01 µg/mL was found to be 59%, the activity at 0.03 µg/mL is 73%, the activity at 0.1 µg/mL is 78% and the activity at 0.3 µg/mL amounted to 66%. In addition, the activity at 1 µg/mL in series [1] came out at 20%. For the same molecule, the “Protein level of tyrosine hydroxylase (TH) in the brain corpus striatum region (% of control)” value in series [2] is reported as 65.2 % of control. For the same molecule, the “Protein level of dopamine transporter (DAT) in the brain corpus striatum region (% of control)” value in series [3] was 73.0 % of control. The “Dopamine content … (% of control)” value in series [4] is given as 31.2 % of control.
For `COc1ccc(-c2c[nH]c3c(-n4ccnc4)ccc(C)c3c2=O)cc1` [Example 67, 8-Imidazol-1-yl-3-(4-methoxyphenyl)-5-methyl-1H-quinolin-4-one], the melting point was in the range of 196 to 198 °C. For the same molecule, in series [1], the activity at 0.01 µg/mL worked out at 45%, the activity at 0.03 µg/mL was determined as 54%, the activity at 0.1 µg/mL was 61% and the activity at 0.3 µg/mL was found to be 57%. The activity at 1 µg/mL in series [1] stood at 42%. Further, the “Protein level of tyrosine hydroxylase (TH) in the brain corpus striatum region (% of control)” value in series [2] is given as 77.9 % of control. In addition, in series [3], the “Protein level of dopamine transporter (DAT) in the brain corpus striatum region (% of control)” value was 50.9 % of control. In series [4], the “Dopamine content … (% of control)” value is 26.7 % of control.
Molecule `CCCSc1ccc(C)c2c(=O)c(-c3ccc(OC)cc3)c[nH]c12` [Example 70, 3-(4-Methoxyphenyl)-5-methyl-8-propylsulfanyl-1H-quinolin-4-one] came in with a melting point of 132 to 135 °C. In series [1], the activity at 0.01 µg/mL was 48%, the activity at 0.03 µg/mL turned out to be 56%, the activity at 0.1 µg/mL stood at 61% and the activity at 0.3 µg/mL was determined as 50%. For the same molecule, the activity at 1 µg/mL in series [1] amounted to 22%. In addition, the “Protein level of tyrosine hydroxylase (TH) in the brain corpus striatum region (% of control)” value in series [2] was 90.2 % of control. Besides, in series [3], the “Protein level of dopamine transporter (DAT) in the brain corpus striatum region (% of control)” value was 64.1 % of control. Further, the “Dopamine content … (% of control)” value in series [4] is 26.5 % of control.
Molecule `COc1ccc(-c2c[nH]c3c(-c4ccco4)ccc(C)c3c2=O)cc1` [Example 96, 8-Furan-2-yl-3-(4-methoxyphenyl)-5-methyl-1H-quinolin-4-one] registered a melting point of 129 to 131 °C. Further, in series [1], the activity at 0.01 µg/mL was 54%, the activity at 0.03 µg/mL was 64%, the activity at 0.1 µg/mL came out at 68% and the activity at 0.3 µg/mL was 60%. Also, the activity at 1 µg/mL in series [1] came to 23%.
As for `COc1ccc(OCC2CC2)c2[nH]c(C)c(-c3ccco3)c(=O)c12` [Example 109, 8-Cyclopropylmethoxy-3-furan-2-yl-5-methoxy-2-methyl-1H-quinolin-4-one], the melting point is 189 to 190 °C. Further, in series [1], the activity at 0.01 µg/mL turned out to be 49%, the activity at 0.03 µg/mL was found to be 62%, the activity at 0.1 µg/mL was determined as 65% and the activity at 0.3 µg/mL is 82%. The activity at 1 µg/mL in series [1] came out at 73%.
